Measured values as given in BigSolDB 2.1.

CC(=O)Oc1ccccc1C(=O)Nc1ncc([N+](=O)[O-])s1
solubility (mole fraction)
Conditions | 278.15 K | 283.15 K | 288.15 K | 293.15 K | 298.15 K | 303.15 K | 308.15 K | 313.15 K | 318.15 K | 323.15 K
in DMF | 0.0665 | 0.0716 | 0.077 | 0.0825 | 0.0882 | 0.0934 | 0.0992 | 0.106 | 0.112 | 0.118
in NMP | 0.0891 | 0.093 | 0.0964 | 0.1 | 0.104 | 0.107 | 0.112 | 0.116 | 0.119 | 0.123
in isopropanol | 0.000205 | 0.000239 | 0.000277 | 0.000319 | 0.000367 | 0.000419 | 0.000476 | 0.000542 | 0.000607 | 0.000684
in water | 1.26e-07 | 1.66e-07 | 2.23e-07 | 2.93e-07 | 3.81e-07 | 4.98e-07 | 6.34e-07 | 8.11e-07 | 9.9e-07 | 1.24e-06
